US20210363254A1, “PHARMACEUTICAL COMBINATIONS” (Novartis AG, priority 2018, published 2021)

Test system: immune cells in Colon 26 tumors
Test: Immune profiling of Colon 26 tumors and draining lymph nodes by flow cytometry (7628 and 8063 Colon 26-XPD)
Assay type: in vivo, mouse
Conditions: 40 mg/kg every 3h for 3 times on days 0 and 7
Method: HDM201 modulated profiles of immune cells in Colon 26 tumors. Increases in % CD11c^+/CD45^+ myeloid cells (A), % CD8^+/CD45^+ T cells (B), PDL1 MFI in CD45^− cells (C), and % PD1^+/CD45^+ lymphocytes (d). Colon 26 cells were implanted into the right flank of Balb/c mice. When tumors reached ˜60 mm^3, mice were randomized and treated with HDM201 at 40 mg/kg every 3h for 3 times on days 0 and 7. Mice were euthanized, and tumors were collected and processed for FACS analysis on Days 5 and 12 post first dose.
HDM201 modulated profiles of immune cells in Colon 26 tumors. Increases in % CD103^+CD11c^+ DCs (A), % Tbet*EOMES-CD8+/CD45^+ T cells (B), and CD8/Treg ratio (C). Colon 26 Cells were implanted into right flank of Balb/c mice. When tumors reached ˜100 mm^3, mice were randomized and treated with HDM201 at 40 mg/kg every 3h for 3 times on days 0 and 7. Mice were euthanized; tumors and draining lymph nodes were collected and processed for FACS analysis on Days 5 and 12 post first dose.
Colon 26 cells were harvested at 80-95% confluence, washed, and re-suspended in cold PBS at a concentration of 2×10^6 cells/ml. Finally, 0.2×10^6 cells in a total volume of 100 μL were implanted subcutaneously (sc) into the upper right flank of naive Balb/c mice.
The tumor infiltrating lymphocytes (TILs) from tumors were analyzed by flow cytometry for both studies ([…] Colon 26-XPD and 8063 Colon 26-XPD). Lymph node lymphocytes were analyzed for 8063 Colon 26-XPD. The samples were plated into two separate 96 well plates, one for T cell staining (Table Ex3.5) and one for myeloid cell staining (Table Ex3.6).
For Study 7628 Colon26-XPD, tumors and spleens were collected from mice on Day 5 and Day 12 post initiation of treatment. Single cell suspensions were generated according to RDS-2016-00163. Briefly, the tissues were minced with scissors followed by mechanical homogenization in dissociation buffer containing RPMI 1640 (Gibco, Life Technologies) with Liberase™ research grade collagenase (Roche) and DNase 1 recombinase (Roche) using the GentleMAX (Miltenyi). Following a 15 minute incubation at 37° C. in a water bath, the homogenates were quenched with 10% FBS and filtered on a […] cell strainer (Falcon). At the end of this process, the single cell suspension of cells was obtained and 2 million cells were plated into 96-well plates for staining with either a T cell or myeloid cell panel of antibodies.
For Study 8063 Colon 26-XPD, tumors and lymph nodes were collected and then processed both mechanically and enzymatically into a single cell suspension according to RDS-2017-00141. The digestion process involves 4-5 consecutive digestion cycles with new digestion buffer containing DNase I (Roche), Collagenase P (Roche), and dispase (Gibco) in each cycle. At the end of this process, cell suspension was filtered on a […] cell strainer to obtain single cell suspension. Two million cells were plated into 96 well plates for staining of T cell panel or myeloid cell panel antibodies.
Following this, the samples were blocked with a 1:50 dilution of mouse Fc block (Miltenyi Biotec) for 30 minutes on ice. The samples were spun for 5 minutes at 1500 rpm and then stained with a fluorochrome-conjugated surface antibody mix as shown in Table Ex3.5 and Ex3.6 for 60 minutes. During the blocking and staining procedures, cells were maintained at 4° C. and protected from light.
For intracellular staining of T cells, after surface staining, the plates were spun again for 5 minutes at 1500 rpm, and then the cells were fixed and permeabilized overnight using a fix/perm kit (eBioscience). The cells were washed with a permeabilization buffer and then stained with the intracellular antibodies for 1 hour at 4° C. in the dark. The plates were washed twice in permeabilization buffer and suspended in 200 μl PBS. Data acquisition was performed using the LSRFortessa™ (BD Biosciences).
Analysis was performed after each run using FLOWJO v10.0.7 software from Treestar. […]

COc1ncc(-c2nc3c(n2C(C)C)[C@H](c2ccc(Cl)cc2)N(c2cc(Cl)cn(C)c2=O)C3=O)c(OC)n1 [HDM201, (S)-5-(5-Chloro-1-methyl-2-oxo-1,2-dihydro-pyridin-3-yl)-6-(4-chloro-phenyl)-2-(2,4-dimethoxy-pyrimidin-5-yl)-1-isopropyl-5,6-dihydro-1H-pyrrolo[3,4-d]imidazol-4-one]
% CD103+CD11+ DCs: increased
% PD1+CD45+ cells: increased
CD8/Treg ratio: increased
PDL1 expression (MFI) in CD45− cells: induced
newly primed % Tbet+EOMES−CD8+/CD45+ T cells: increased
% CD11C+CD45+ cells in tumors (Days 5 and 12): increased
CD8 T cells in tumors (Days 5 and 12): increased
